Assay results: US20240180872A1, “METHODS AND COMPOUNDS OF CANNABIDIOL, MELATONIN AND AKBA FOR TREATING PANCREATIC CANCER” (priority 2021, published 2024)

How the values were obtained:
[1] = tested on: pancreatic adenocarcinoma associated genes; test: TaqMan Array gene expression in PANC-1, normalized for GAPDH; conditions: 24 hs, CBD 3.8, MLT 200, AKBA 7.5 micrograms/ml
Protocol: Total RNA from untreated or CBD, MLT, AKBA alone and in combination treated cell lines was extracted using Rneasy Mini kit (Qiagen, Milan, Italy). One microgram of total RNA from each sample was subjected to reverse transcription in a total volume of 20 μL using the High-Capacity cDNA Archive Kit (Applied Biosystem, Foster City, […], USA) according to the instructions. cDNAs were analyzed by qRT-PCR performed using an IQ5 Multicolor Real time PCR Detection system. Quantitative real-time gene expression was performed with the TaqMan® Array Human Pancreatic Adenocarcinoma 96-well Plate, containing 92 assays to pancreatic adenocarcinoma associated genes and 4 assays to candidate endogenous control genes, was purchased (Thermo Fisher, Grand Island, NY, USA) and used to evaluate the treatments in modulating PDAC-related genes (Table 1). Measurement of different housekeeping genes (GAPDH; HPRT1; GUSB) on the samples was used to normalize mRNA content. The gene expression levels of treated cell lines were expressed as relative fold compared with untreated or vehicle-treated cells.
To elucidate the molecular events induced by CBD, MLT and AKBA alone and in combination, 92 genes involved in PDAC progression and aggressiveness were evaluated by Taqman Array. Both cell lines were treated with CBD, MLT and AKBA alone and in combination, and the molecular pathways of PDAC associated gene were evaluated.
Target mRNA levels were normalized for GAPDH expression.

MIAPaCa-2 cell line = test: Cytotoxicity assay (MTT, 72 hours, daily administration) in MIAPaCa-2; conditions: Homo sapiens, MIA PaCa-2, read-out: % VIABILITY ± S.D.
Protocol: Human pancreatic ductal adenocarcinoma (PANC-1 and MIAPaCa-2) cell lines were purchased by Sigma Aldrich (Milan, Italy) and cultured in DMEM high glucose medium (EuroClone, Milan, Italy) supplemented with 10% of fetal bovine serum (FBS), 2 mM L-glutamine, 100 IU/mL penicillin, 100 mg streptomycin and 1 mM sodium pyruvate. Cell lines were maintained at 37° C. with 5% CO2 and 95% of humidity.
3×10^4 cells/mL were seeded in 96-well plates in a final volume of 100 L/well. After one day of incubation, compounds or vehicles, alone or in combination, were added and six replicates were used for each treatment and all experiments were repeated three times. In all the experiments, the treatment was daily added, after washing with fresh medium. After 72 hours cell viability was investigated by adding 0.8 mg/mL of 3-[4,5-dimethylthiazol-2-yl]-2,5 diphenyl tetrazolium bromide (MTT) (Sigma Aldrich) to the media. After 3 h the supernatant was removed, and the pellet of salt crystals was solubilized with 100 μL/well of DMSO. The absorbance of the sample against a background control was measured at 570 nm using an ELISA reader microliter plate (BioTek Instruments, Winooski, VT, USA).
Cytotoxicity in PDAC cell lines: The effect of CBD, MLT and AKBA in reducing cell viability was evaluated at 72 hours, post daily administration, in PDAC cell lines. Cells were treated with different doses of CBD, MLT and AKBA (up to 1 mg) and percentage of cell viability was evaluated by the MTT assay. […] The compounds were administered daily for 72 hours, as in previous experiments at the desired doses. […] MTT assay was used to analyse the cell cytotoxicity.

[2] = tested on: PCEM004a endometrial cancer cell line; test: Cytotoxicity assay (MTT, 72 hours, daily administration) in PCEM004a; type: cell-based; conditions: Homo sapiens, read-out: % VIABILITY ± S.D.
Excerpt: The combinations were effective in other human tumor cell lines and we tested in glioblastoma cell line and endometrial cancer cell Additional tests include data obtained from two independent experiments, six wells for dose.

CC(=O)O[C@@H]1CC[C@@]2(C)[C@@H](CC[C@]3(C)[C@@H]2C(=O)C=C2[C@@H]4[C@@H](C)[C@H](C)CC[C@]4(C)CC[C@]23C)[C@@]1(C)C(=O)O [AKBA, (3R,4R,4aR,6aR,6bS,8aR,11R,12S,12aR,14aR,14bS)-3-acetyloxy-4,6a,6b,8a,11,12,14b-heptamethyl-14-oxo-1,2,3,4a,5,6,7,8,9,10,11,12,12a, 14a-tetradecahydropicene-4-carboxylic acid] was tested, and the “AKT3 mRNA relative expression” value ([1]; VEI 0.00) was 0.00, the “ARHGEF7 mRNA relative expression” value ([1]; VEI 0.00) was 0.00 and the “BCL2 mRNA relative expression” value ([1]; VEI 0.00) was 0.00. The “CCND2 mRNA relative expression” value ([1]; VEI 0.00) was 0.00, the “CDKN2B mRNA relative expression” value ([1]; VEI 0.00) was 0.20 and the “CYP2E1 mRNA relative expression” value ([1]; VEI 0.00) was 0.00. For the same compound, the “EGF mRNA relative expression” value ([1]; VEI 0.00) was 0.00, the “IGF1 mRNA relative expression” value ([1]; VEI 0.00) was 0.00 and the “IL6 mRNA relative expression” value ([1]; VEI 0.00) was 0.00. For the same compound, the “KDR mRNA relative expression” value ([1]; VEI 0.00) was 0.00, the “KIT mRNA relative expression” value ([1]; VEI 0.00) was 0.00 and the “MAPK3 mRNA relative expression” value ([1]; VEI 0.00) was 0.00. For the same compound, the “MMP1 mRNA relative expression” value ([1]; VEI 0.00) was 0.02, the “MMP3 mRNA relative expression” value ([1]; VEI 0.00) was 0.00 and the “TGFA mRNA relative expression” value ([1]; VEI 0.00) was 0.02. For the same compound, the “TGFB2 mRNA relative expression” value ([1]; VEI 0.00) was 0.12, the “JAK2 mRNA relative expression” value ([1]; VEI 0.01) was 0.04 and the “JAK3 mRNA relative expression” value ([1]; VEI 0.01) was 0.03. The “MMP7 mRNA relative expression” value ([1]; VEI 0.01) was 0.03, the “MMP9 mRNA relative expression” value ([1]; VEI 0.01) was 0.03 and the “PK3CA mRNA relative expression” value ([1]; VEI 0.01) was 0.02. For the same compound, the “RAC2 mRNA relative expression” value ([1]; VEI 0.01) was 0.01, the “RB1 mRNA relative expression” value ([1]; VEI 0.01) was 0.15 and the “TGFB3 mRNA relative expression” value ([1]; VEI 0.01) was 0.05. The “TGFBR1 mRNA relative expression” value ([1]; VEI 0.02) was 0.07, the “BRCA2 mRNA relative expression” value ([1]; VEI 0.03) was 0.10 and the “CDKN2D mRNA relative expression” value ([1]; VEI 0.03) was 0.05. For the same compound, the “MDM2 mRNA relative expression” value ([1]; VEI 0.03) was 0.04, the “RHOB mRNA relative expression” value ([1]; VEI 0.03) was 0.05 and the “CDKN2C mRNA relative expression” value ([1]; VEI 0.04) was 0.12. For the same compound, the “PK3R1 mRNA relative expression” value ([1]; VEI 0.04) was 0.03, the “PTGS2 mRNA relative expression” value ([1]; VEI 0.04) was 0.08 and the “STATSB mRNA relative expression” value ([1]; VEI 0.04) was 0.20. For the same compound, the “MAPK1 mRNA relative expression” value ([1]; VEI 0.05) was 0.60, the “SMAD2 mRNA relative expression” value ([1]; VEI 0.05) was 0.04 and the “CCND1 mRNA relative expression” value ([1]; VEI 0.06) was 0.10. The “MAP2K2 mRNA relative expression” value ([1]; VEI 0.06) was 0.10, the “PK3CD mRNA relative expression” value ([1]; VEI 0.06) was 0.05 and the “TGFBR2 mRNA relative expression” value ([1]; VEI 0.06) was 0.10. The “VEGFA mRNA relative expression” value ([1]; VEI 0.06) was 0.45, the “VEGFB mRNA relative expression” value ([1]; VEI 0.06) was 0.18 and the “CCNA2 mRNA relative expression” value ([1]; VEI 0.07) was 0.10. The “CCNE2 mRNA relative expression” value ([1]; VEI 0.07) was 0.06, the “EZF3 mRNA relative expression” value ([1]; VEI 0.07) was 0.07 and the “SMAD4 mRNA relative expression” value ([1]; VEI 0.07) was 0.09. The “SOS1 mRNA relative expression” value ([1]; VEI 0.07) was 0.10, the “TGFB1 mRNA relative expression” value ([1]; VEI 0.07) was 0.15 and the “MAP2K1 mRNA relative expression” value ([1]; VEI 0.08) was 0.10. For the same compound, the “MMP2 mRNA relative expression” value ([1]; VEI 0.08) was 0.20, the “VEGFC mRNA relative expression” value ([1]; VEI 0.08) was 0.12 and the “CCNE1 mRNA relative expression” value ([1]; VEI 0.09) was 0.10. For the same compound, the “CDK2 mRNA relative expression” value ([1]; VEI 0.09) was 0.10, the “KRAS mRNA relative expression” value ([1]; VEI 0.09) was 0.09 and the “RAC1 mRNA relative expression” value ([1]; VEI 0.09) was 0.10. The “REL mRNA relative expression” value ([1]; VEI 0.09) was 0.08, the “STAT2 mRNA relative expression” value ([1]; VEI 0.09) was 0.11 and the “CDKN1B mRNA relative expression” value ([1]; VEI 0.10) was 0.10. For the same compound, the “CDKN2A mRNA relative expression” value ([1]; VEI 0.10) was 0.12, the “RELA mRNA relative expression” value ([1]; VEI 0.10) was 0.10 and the “AKT1 mRNA relative expression” value ([1]; VEI 0.11) was 0.20. The “PK3CB mRNA relative expression” value ([1]; VEI 0.11) was 0.16, the “FIGF mRNA relative expression” value ([1]; VEI 0.14) was 0.00 and the “TP53 mRNA relative expression” value ([1]; VEI 0.14) was 0.38. The “EZF4 mRNA relative expression” value ([1]; VEI 0.16) was 0.18, the “NFKB2 mRNA relative expression” value ([1]; VEI 0.16) was 0.10 and the “EZF1 mRNA relative expression” value ([1]; VEI 0.17) was 0.14. For the same compound, the “SMAD3 mRNA relative expression” value ([1]; VEI 0.17) was 0.20, the “STAT1 mRNA relative expression” value ([1]; VEI 0.18) was 0.31 and the “BRAF mRNA relative expression” value ([1]; VEI 0.22) was 0.18. For the same compound, the “BIRC5 mRNA relative expression” value ([1]; VEI 0.23) was 0.22, the “JAK1 mRNA relative expression” value ([1]; VEI 0.23) was 1.10 and the “CDK4 mRNA relative expression” value ([1]; VEI 0.24) was 0.25. For the same compound, the “EGFR mRNA relative expression” value ([1]; VEI 0.24) was 0.18, the “RAF1 mRNA relative expression” value ([1]; VEI 0.25) was 0.08 and the “CCNB1 mRNA relative expression” value ([1]; VEI 0.27) was 0.20. The “ERBB2 mRNA relative expression” value ([1]; VEI 0.27) was 0.07, the “SRC mRNA relative expression” value ([1]; VEI 0.27) was 0.14 and the “GRB2 mRNA relative expression” value ([1]; VEI 0.31) was 0.38. For the same compound, the “BCL2L1 mRNA relative expression” value ([1]; VEI 0.35) was 0.23, the “HSP90AA1 mRNA relative expression” value ([1]; VEI 0.35) was 0.22 and the “NFKB1 mRNA relative expression” value ([1]; VEI 0.35) was 0.10. For the same compound, the “RHOA mRNA relative expression” value ([1]; VEI 0.37) was 0.30, the “ELK1 mRNA relative expression” value ([1]; VEI 0.41) was 0.11 and the “RELB mRNA relative expression” value ([1]; VEI 0.42) was 0.12. For the same compound, the “CDC42 mRNA relative expression” value ([1]; VEI 0.45) was 0.02, the “CDKN1A mRNA relative expression” value ([1]; VEI 0.49) was 0.28 and the “AKT2 mRNA relative expression” value ([1]; VEI 0.50) was 0.41. For the same compound, the “HBEGF mRNA relative expression” value ([1]; VEI 0.53) was 0.44, the “NOTCH1 mRNA relative expression” value ([1]; VEI 1.03) was 0.05 and the “STAT6 mRNA relative expression” value ([1]; VEI 1.38) was 0.13. The “STAT3 mRNA relative expression” value ([1]; VEI 4.45) was 0.18, the viability at 5 µg/mL (MIAPaCa-2 cell line) was 110 ± 7.3% and the viability at 7.5 µg/mL (MIAPaCa-2 cell line) was 74.8 ± 6.2%. The viability at 10 µg/mL (MIAPaCa-2 cell line) was 55.3 ± 4.8%, the viability at 15 µg/mL (MIAPaCa-2 cell line) was 12.1 ± 0.9% and the viability at 5 µg/mL ([2]; AKBA 5 micrograms/ml) was 100 ± 7.5%. For the same compound, the viability at 7.5 µg/mL ([2]; AKBA 7.5 micrograms/ml) was 98.4 ± 6.3%, the viability at 10 µg/mL ([2]; AKBA 10 micrograms/ml) was 87.4 ± 5.8% and the viability at 15 µg/mL ([2]; AKBA 15 micrograms/ml) was 60.2 ± 5.4%.
